{"source": "patent US20260248087A1", "about": "“GENERATING DOUBLED HAPLOID PLANTS” (Syngenta Crop Protection AG, priority 2023, published 2026)", "key": {"embryos from maize ears [1]": {"test_system": "embryos from maize ears", "assay": "Potting and transplant rate, co-treatment with metcamifen and thiamethoxam during colchicine doubling", "type": "in vivo", "description": "(§1) As used herein, the term “potted rate” or “potting rate” refers to the percent of germinated embryos successfully transferred to soil from total treated haploid embryos. The “potted rate” is used as an indication of plant health in monitoring the success of recovery and growth after treatment of haploids. As used herein, the term “transplant rate” refers to the survival of healthy plants after embryos were germinated and transferred to soil.\n(§2) To assess the impact of the safener and vigor enhancing compounds on the full DH production pipeline, experiments were designed and conducted spanning haploid embryo isolation, doubling treatment, germination, potting, growth to maturity, selfing, and seed set evaluation. Embryos from maize ears of two genotypes were isolated and co-treated with both metcamifen and thiamethoxam during the colchicine doubling treatment, in triplicate. Metcamifen was added in the Murashige and Skoog Medium (MS medium) at concentrations ranging from 400 to 800 mg/L in combination with TMX at concentrations ranging from 4000 to 6000 mg/L. Control co-treatments with metcamifen alone, TMX alone, or colchine-only were run in parallel. Concentrations for co-treatments were selected based on best outcomes from experiments in Examples 1-8. The co-treatments incubated for 24 and 48 hours at 28° C. with 150 PAR light. Resulting embryos were germinated and the percentage of embryos successfully transferred to soil was measured as the potting rate. The survival of healthy plants was measured as the transplant rate."}, "embryos from maize ears [2]": {"test_system": "embryos from maize ears", "assay": "Ear kernel setting rates and DH yield after co-treatment with metcamifen and thiamethoxam", "type": "in vivo", "conditions": "for Ears >4 Rate Mean / Ears >49 Rate Mean: co-treatment with colchicine", "method": "as §2, with “transplant rate. […]” for “transplant rate.”\nOne way of measuring the success of DH production is a ratio of output:input, defined as “DH yield”, where a larger ratio is typically desirable for a more efficient production system. In this study, we measured this in two ways: DH ears/total haploid embryos and DH ears/transplants (see Table 15)."}, "GST27": {"test_system": "GST27", "assay": "GST27 induction, metcamifen and thiamethoxam co-treatment in liquid medium", "type": "cell-based, maize", "method": "For the examples below, GST27 was used as a quick indicator for treatment effectiveness.\n(§3) Isolated embryos were placed in a Petri dish on filter paper wetted with liquid Murashige and Skoog Medium (MS medium) containing colchicine and a formulation of metcamifen at 800 mg/L, TMX at 4000 mg/L, or a combination of 800 mg/L metcamifen and 4000 mg/L TMX. The colchicine treatment control used the same conditions except with a medium containing 3.5 g/L Gelzan as compared to the liquid medium without Gelzan. The co-treatments incubated for 24 or 48 hours at 28° C. with 150 PAR light and were conducted on 2 genotypes with 2 replicates. The effects on GST expression, potting rate, and transplant rate are reported (see Table 16). The rate of diploid escapes observed increased to 6.4-8.5% in the 24-hour co-treatments with 4000 mg/L TMX and 4000 mg/L TMX combined with 800 mg/L metcamifen. In all other co-treatments, the escape rate was 0%. […] The best transplant rates observed were in the 24-hour duration 4000 mg/L TMX co-treatment (90%) compared to the control (72%).\n(§4) In a separate experiment, additional concentrations of metcamifen and TMX co-treatment were tested in liquid co-treatments. The experimental setup was the same as described above for the data in Table 16, but the co-treatment concentrations were varied. […] The decreased concentrations were associated with lower rates of escapes in the 24-hour co-treatments, only the metcamifen with TMX combination co-treatment produced escapes (1.8%). Potting and transplant rates remained high, with the best performance in the 24-hour metcamifen with TMX combination co-treatment (96% potting, and 87% transplant) compared to the colchicine-only control (60% potting, and 47% transplant) (see Table 17). In all liquid media co-treatments, higher rates of bacterial and/or fungal contamination were observed. In total, 35% of the attempted experiments were discarded due to contamination issues and excluded from the data analysis."}, "isolated embryos": {"test_system": "isolated embryos", "assay": "Potting and transplant rate, metcamifen and thiamethoxam co-treatment in liquid medium", "type": "in vivo, maize", "description": "as §1, §3, §4"}, "[3]": {"conditions": "Table 16, liquid medium: metcamifen 800 mg/L, 24 Hour"}, "[4]": {"conditions": "Table 16, liquid medium: metcamifen 800 mg/L, 48 Hour"}, "[5]": {"conditions": "Table 17, liquid medium: metcamifen 800 mg/L, 24 Hour"}, "[6]": {"conditions": "Table 17, liquid medium: metcamifen 800 mg/L, 48 Hour"}, "[7]": {"conditions": "Table 16, liquid medium: TMX 4000 mg/L, 24 Hour"}, "[8]": {"conditions": "Table 16, liquid medium: TMX 4000 mg/L, 48 Hour"}, "[9]": {"conditions": "Table 17, liquid medium: TMX 4000 mg/L, 24 Hour"}, "[10]": {"conditions": "Table 17, liquid medium: TMX 6000 mg/L, 48 Hour"}}, "note": "“And” between values parts separate entries of the source, which are not always exact repeats. Equal values may be shown once.", "data": [{"compound": "CNC(=O)Nc1ccc(S(=O)(=O)NC(=O)c2ccccc2OC)cc1", "note": "[Metcamifen, metcamifen]", "values": [{"measurement": "Potted Rate Mean", "setting": "embryos from maize ears [1]; metcamifen 800 mg/L, 24 hours", "value": 76, "unit": "%"}, {"measurement": "Transplant Rate Mean", "setting": "embryos from maize ears [1]; metcamifen 800 mg/L, 24 hours", "value": 68, "unit": "%"}, {"measurement": "Potted Rate Mean", "setting": "embryos from maize ears [1]; metcamifen 800 mg/L, 48 hours", "value": 15, "unit": "%"}, {"measurement": "Transplant Rate Mean", "setting": "embryos from maize ears [1]; metcamifen 800 mg/L, 48 hours", "value": 15, "unit": "%"}, {"measurement": "Ears >4 Rate Mean", "setting": "embryos from maize ears [2]; metcamifen 800 mg/L, 24 hours", "value": 38, "unit": "%"}, {"measurement": "Ears >49 Rate Mean", "setting": "embryos from maize ears [2]; metcamifen 800 mg/L, 24 hours", "value": 24, "unit": "%"}, {"measurement": "Ears >4 Rate Mean", "setting": "embryos from maize ears [2]; metcamifen 800 mg/L, 48 hours", "value": 9, "unit": "%"}, {"measurement": "Ears >49 Rate Mean", "setting": "embryos from maize ears [2]; metcamifen 800 mg/L, 48 hours", "value": 4, "unit": "%"}, {"measurement": "Ears >4 DH Yield, DH Ears/Total Haploids, Mean", "setting": "embryos from maize ears [2]; metcamifen 800 mg/L, 24 hours", "value": 0.33}, {"measurement": "Ears >4 DH Yield, DH Ears/Transplants, Mean", "setting": "embryos from maize ears [2]; metcamifen 800 mg/L, 24 hours", "value": 0.47}, {"measurement": "Ears >49 DH Yield, DH Ears/Total Haploids, Mean", "setting": "embryos from maize ears [2]; metcamifen 800 mg/L, 24 hours", "value": 0.21}, {"measurement": "Ears >49 DH Yield, DH Ears/Transplants, Mean", "setting": "embryos from maize ears [2]; metcamifen 800 mg/L, 24 hours", "value": 0.30}, {"measurement": "Ears >4 DH Yield, DH Ears/Total Haploids, Mean", "setting": "embryos from maize ears [2]; metcamifen 800 mg/L, 24 hours, listed as metcamifen", "value": "increased significantly"}, {"measurement": "Ears >4 DH Yield, DH Ears/Total Haploids, Mean", "setting": "embryos from maize ears [2]; metcamifen 800 mg/L, 48 hours", "value": 0.07}, {"measurement": "Ears >4 DH Yield, DH Ears/Transplants, Mean", "setting": "embryos from maize ears [2]; metcamifen 800 mg/L, 48 hours", "value": 0.61}, {"measurement": "Ears >49 DH Yield, DH Ears/Total Haploids, Mean", "setting": "embryos from maize ears [2]; metcamifen 800 mg/L, 48 hours", "value": 0.03}, {"measurement": "Ears >49 DH Yield, DH Ears/Transplants, Mean", "setting": "embryos from maize ears [2]; metcamifen 800 mg/L, 48 hours", "value": 0.25}, {"measurement": "GST27 Induction After", "setting": "GST27; [3]", "value": 270, "unit": "ng/mg TSP"}, {"measurement": "GST27 Induction Before", "setting": "GST27; [3]", "value": 0, "unit": "ng/mg TSP"}, {"measurement": "GST27 Induction After", "setting": "GST27; [4]", "value": 396, "unit": "ng/mg TSP"}, {"measurement": "GST27 Induction Before", "setting": "GST27; [4]", "value": 0, "unit": "ng/mg TSP"}, {"measurement": "GST27 Induction After", "setting": "GST27; [5]", "value": 263, "unit": "ng/mg TSP"}, {"measurement": "GST27 Induction Before", "setting": "GST27; [5]", "value": 0, "unit": "ng/mg TSP"}, {"measurement": "GST27 Induction After", "setting": "GST27; [6]", "value": 340, "unit": "ng/mg TSP"}, {"measurement": "GST27 Induction Before", "setting": "GST27; [6]", "value": 4, "unit": "ng/mg TSP"}, {"measurement": "Potting Rate Mean", "setting": "isolated embryos; [3]", "value": 92.5, "unit": "%"}, {"measurement": "Transplant Rate Mean", "setting": "isolated embryos; [3]", "value": 88.2, "unit": "%"}, {"measurement": "Potting Rate Mean", "setting": "isolated embryos; [4]", "value": 21.5, "unit": "%"}, {"measurement": "Transplant Rate Mean", "setting": "isolated embryos; [4]", "value": 20.4, "unit": "%"}, {"measurement": "Potting Rate Mean", "setting": "isolated embryos; [5]", "value": 86.2, "unit": "%"}, {"measurement": "Transplant Rate Mean", "setting": "isolated embryos; [5]", "value": 74.1, "unit": "%"}, {"measurement": "Potting Rate Mean", "setting": "isolated embryos; [6]", "value": 9.2, "unit": "%"}, {"measurement": "Transplant Rate Mean", "setting": "isolated embryos; [6]", "value": 9.2, "unit": "%"}]}, {"compound": "CN1COCN(Cc2cnc(Cl)s2)/C1=N\\[N+](=O)[O-]", "note": "[TMX, thiamethoxam]", "values": [{"measurement": "Potted Rate Mean", "setting": "embryos from maize ears [1]; TMX 4000 mg/L, 48 hours", "value": 79, "unit": "%"}, {"measurement": "Transplant Rate Mean", "setting": "embryos from maize ears [1]; TMX 4000 mg/L, 48 hours", "value": 77, "unit": "%"}, {"measurement": "Potted Rate Mean", "setting": "embryos from maize ears [1]; TMX 6000 mg/L, 24 hours", "value": 95, "unit": "%"}, {"measurement": "Transplant Rate Mean", "setting": "embryos from maize ears [1]; TMX 6000 mg/L, 24 hours", "value": 93, "unit": "%"}, {"measurement": "Ears >4 DH Yield, DH Ears/Total Haploids, Mean", "setting": "embryos from maize ears [2]; TMX 4000 mg/L, 48 hours", "value": 0.29}, {"measurement": "Ears >4 DH Yield, DH Ears/Transplants, Mean", "setting": "embryos from maize ears [2]; TMX 4000 mg/L, 48 hours", "value": 0.37}, {"measurement": "Ears >49 DH Yield, DH Ears/Total Haploids, Mean", "setting": "embryos from maize ears [2]; TMX 4000 mg/L, 48 hours", "value": 0.12}, {"measurement": "Ears >49 DH Yield, DH Ears/Transplants, Mean", "setting": "embryos from maize ears [2]; TMX 4000 mg/L, 48 hours", "value": 0.16}, {"measurement": "Ears >4 DH Yield, DH Ears/Transplants, Mean", "setting": "embryos from maize ears [2]; TMX 6000 mg/L, 24 hours", "value": 0.44}, {"measurement": "Ears >49 DH Yield, DH Ears/Total Haploids, Mean", "setting": "embryos from maize ears [2]; TMX 6000 mg/L, 24 hours", "value": 0.20}, {"measurement": "Ears >49 DH Yield, DH Ears/Transplants, Mean", "setting": "embryos from maize ears [2]; TMX 6000 mg/L, 24 hours", "value": 0.21}, {"measurement": "Ears >4 Rate Mean", "setting": "embryos from maize ears [2]; TMX 4000 mg/L, 48 hours", "value": 30, "unit": "%"}, {"measurement": "Ears >49 Rate Mean", "setting": "embryos from maize ears [2]; TMX 4000 mg/L, 48 hours", "value": 13, "unit": "%"}, {"measurement": "Ears >4 Rate Mean", "setting": "embryos from maize ears [2]; TMX 6000 mg/L, 24 hours", "value": 45, "unit": "%"}, {"measurement": "Ears >49 Rate Mean", "setting": "embryos from maize ears [2]; TMX 6000 mg/L, 24 hours", "value": 24, "unit": "%"}, {"measurement": "GST27 Induction After", "setting": "GST27; [7]", "value": 255, "unit": "ng/mg TSP"}, {"measurement": "GST27 Induction Before", "setting": "GST27; [7]", "value": 0, "unit": "ng/mg TSP"}, {"measurement": "GST27 Induction After", "setting": "GST27; [8]", "value": 194, "unit": "ng/mg TSP"}, {"measurement": "GST27 Induction Before", "setting": "GST27; [8]", "value": 1, "unit": "ng/mg TSP"}, {"measurement": "GST27 Induction After", "setting": "GST27; [9]", "value": 193, "unit": "ng/mg TSP"}, {"measurement": "GST27 Induction Before", "setting": "GST27; [9]", "value": 5, "unit": "ng/mg TSP"}, {"measurement": "GST27 Induction After", "setting": "GST27; [10]", "value": 208, "unit": "ng/mg TSP"}, {"measurement": "GST27 Induction Before", "setting": "GST27; [10]", "value": 13, "unit": "ng/mg TSP"}, {"measurement": "Potting Rate Mean", "setting": "isolated embryos; [7]", "value": 92.3, "unit": "%"}, {"measurement": "Transplant Rate Mean", "setting": "isolated embryos; [7]", "value": "90% and 89.7%"}, {"measurement": "Potting Rate Mean", "setting": "isolated embryos; [8]", "value": 79.4, "unit": "%"}, {"measurement": "Transplant Rate Mean", "setting": "isolated embryos; [8]", "value": 72.2, "unit": "%"}, {"measurement": "Potting Rate Mean", "setting": "isolated embryos; [9]", "value": 77.3, "unit": "%"}, {"measurement": "Transplant Rate Mean", "setting": "isolated embryos; [9]", "value": 81.3, "unit": "%"}, {"measurement": "Potting Rate Mean", "setting": "isolated embryos; [10]", "value": 58.0, "unit": "%"}, {"measurement": "Transplant Rate Mean", "setting": "isolated embryos; [10]", "value": 54.0, "unit": "%"}]}]}
